Measurements taken from ChEMBL document CHEMBL1201862, “PubChem BioAssay data set” (2004).
The source made the active and inactive calls.

Experiments:
H9c2 = experiment: cells; type: functional, cell-based; settings: Rattus norvegicus, H9c2, Myocardium;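 also: confirmatory concentration-response retest of ultra-high-throughput screening hits for modulation of myocardial damage; cell death induced by hydrogen peroxide oxidative stress; compound pretreatment for 60 min then peroxide exposure for 2 h; potency is for protecting the cells against peroxide damage rather than for killing them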
[1] = A Cell Based Secondary Assay To Explore Cytotoxicity of Compounds that Sensitize Mycobacterium Tuberculosis to Beta-Lactam Antibiotics.; type: functional
[2] = blockers of HIV-1 ZM109 envelope-driven cell-cell fusion – HeLa effector, CEM target cells, luciferase, cherry-pick, dose response (AID 652058); type: functional, cell-based;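 also: luciferase signal from HIV-1 Env mediated cell-cell fusion of effector and target cells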
[3] = blockers of HIV-1 envelope-mediated cell-cell fusion – cherry-pick, dose response (AID 652057); type: functional, cell-based
[4] = target: T1, Zinc finger protein mex-5 (Caenorhabditis elegans, UniProt Q9XUB2); experiment: potency of MEX-5 RNA-binding blockers – biochemical, C. elegans, fluorescence polarization, dose response (AID 1960)
T1 sequence (Q9XUB2 whole entry): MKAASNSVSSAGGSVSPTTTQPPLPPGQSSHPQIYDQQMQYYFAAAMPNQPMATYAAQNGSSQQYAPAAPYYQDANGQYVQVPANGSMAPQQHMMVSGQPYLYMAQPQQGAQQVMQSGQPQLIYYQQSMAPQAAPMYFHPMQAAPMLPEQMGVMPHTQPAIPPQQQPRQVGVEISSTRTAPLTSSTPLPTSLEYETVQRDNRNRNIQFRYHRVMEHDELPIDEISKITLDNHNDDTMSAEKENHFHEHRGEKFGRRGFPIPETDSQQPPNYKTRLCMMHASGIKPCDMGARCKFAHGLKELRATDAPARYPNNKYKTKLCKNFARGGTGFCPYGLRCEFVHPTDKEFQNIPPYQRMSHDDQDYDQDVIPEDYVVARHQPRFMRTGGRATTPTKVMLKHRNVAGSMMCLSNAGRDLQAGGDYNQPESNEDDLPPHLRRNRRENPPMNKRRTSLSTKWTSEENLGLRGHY

[5] = target: T2, RNA-binding protein pos-1 (Caenorhabditis elegans, UniProt G5EF15); experiment: disruptors of C. elegans POS-1 RNA interaction – biochemical, fluorescence polarization, dose response (AID 1964);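 also: purified POS-1 fused to maltose binding protein made in E. coli; potency of compounds blocking POS-1 binding to fluorescent RNA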
T2 sequence (G5EF15 whole entry): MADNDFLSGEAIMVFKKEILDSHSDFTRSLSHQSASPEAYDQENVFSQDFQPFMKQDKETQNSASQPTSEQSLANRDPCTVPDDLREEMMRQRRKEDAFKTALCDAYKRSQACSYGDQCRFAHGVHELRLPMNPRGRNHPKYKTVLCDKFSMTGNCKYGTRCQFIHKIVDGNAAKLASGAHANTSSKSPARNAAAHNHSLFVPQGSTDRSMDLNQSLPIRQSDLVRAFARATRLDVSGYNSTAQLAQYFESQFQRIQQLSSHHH

[6] = P. falciparum Dd2 growth inhibitors, dose response, SYBR Green, cherry-picked samples (AID 1159567); type: functional, cell-based
[7] = target: T3, Mannose-6-phosphate isomerase (Homo sapiens, UniProt P34949); experiment: MPI inhibition at elevated mannose 6-phosphate – biochemical, fluorescence intensity, high mannose 6-phosphate, primary screen (AID 1220)
T3 sequence (P34949 whole entry): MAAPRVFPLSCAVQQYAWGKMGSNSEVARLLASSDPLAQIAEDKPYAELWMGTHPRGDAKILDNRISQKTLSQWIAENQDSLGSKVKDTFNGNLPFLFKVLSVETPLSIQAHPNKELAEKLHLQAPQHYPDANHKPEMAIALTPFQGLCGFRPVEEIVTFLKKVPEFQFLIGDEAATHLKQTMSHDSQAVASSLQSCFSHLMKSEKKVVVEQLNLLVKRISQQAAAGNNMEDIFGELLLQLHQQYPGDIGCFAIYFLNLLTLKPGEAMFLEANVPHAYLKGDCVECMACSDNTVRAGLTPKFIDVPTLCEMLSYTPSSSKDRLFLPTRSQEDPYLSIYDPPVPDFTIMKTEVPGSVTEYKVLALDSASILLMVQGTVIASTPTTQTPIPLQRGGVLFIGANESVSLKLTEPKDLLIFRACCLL

[8] = HIV-1 AD8 envelope cell-cell fusion blockers – cherry-pick, dose response (AID 652062); type: functional, cell-based;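 also: luciferase signal from cell-cell fusion driven by HIV-1 clade B AD8 Env; potency is for inhibitors of fusion seen as a drop in luminescence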

**Q.** For `O=[N+]([O-])c1ccc(Nc2nc(N/N=C/c3cccc(F)c3)nc(N3CCCC3)n2)cc1`, which IC50 (H9c2) is on record?
**A.** Its IC50 is > 79 µM (inactive).

**Q.** For `Cc1ccc(C)c(S(=O)(=O)N2CCN(C(=O)Cn3[nH]c(=O)c4ccccc4c3=O)CC2)c1`, which IC50 (H9c2) is on record?
**A.** Its IC50 is > 79 µM (inactive).

**Q.** With `CCOc1cc(/C=N\NC(=O)c2ccc(NC(=O)C(C)(C)C)cc2)ccc1OC(=O)c1ccc(C)cc1` as the compound, how does the CC50 [1] read?
**A.** The CC50 was > 40 µM (active).

**Q.** Which AC50 [2] does the source give for `COc1ccccc1-c1ccc2c(c1)O[C@H](CN(C)S(=O)(=O)c1ccccc1)[C@H](C)CN([C@H](C)CO)S2(=O)=O` here?
**A.** The AC50 was 51.3 µM (active).

**Q.** What about the AC50 [3] of the same compound?
**A.** The AC50 was 23.5 µM (active).

**Q.** For `COC(=O)c1sccc1NC(=O)c1ccc(C)s1`, which EC50 [4] is on record?
**A.** Its EC50 is > 300 µM (not active).

**Q.** And the EC50 [5]?
**A.** The EC50 was > 300 µM (not active).

**Q.** Which IC50 (H9c2) does the source give for `CC(=O)c1ccc(-c2[nH]c3ccccc3c2CCN2C(=O)c3ccccc3C2=O)cc1` here?
**A.** The IC50 was > 79 µM (inactive).

**Q.** Which IC50 (H9c2) does the source give for `CC(=C/c1ccc(C(C)C)cc1)/C=N/NC(=O)c1ccncc1` here?
**A.** The IC50 was > 79 µM (inactive).

**Q.** For `C[C@H](CO)N1C[C@H](C)[C@H](CN(C)Cc2ccc(Oc3ccccc3)cc2)Oc2ccc(NS(=O)(=O)c3ccc(Cl)cc3)cc2CC1=O`, which AC50 [6] is on record?
**A.** Its AC50 is 7.51 µM (active).

**Q.** With `CN(C(S)=Nc1ccc(SC(F)F)cc1)c1ccc(O)cc1` as the compound, how does the IC50 [7] read?
**A.** Its IC50 is > 50 µM (not active).

**Q.** For `Cc1c(C#N)c(N)nc2c3c(sc12)NC(=O)CC3c1ccc(Cl)cc1` (configuration not stated), which IC50 (H9c2) is on record?
**A.** Its IC50 is 28.2 µM (active).

**Q.** With `CC(C)NC(=O)Nc1ccc2c(c1)C(=O)N([C@@H](C)CO)C[C@@H](C)[C@@H](CN(C)C(=O)Nc1ccc(F)cc1)OCCCC[C@@H](C)O2` as the compound, how does the AC50 [8] read?
**A.** The AC50 was 3.2 µM (active).

**Q.** What about the AC50 [2] of the same compound?
**A.** The AC50 was 5.56 µM (active).

**Q.** What about the AC50 [3] of the same compound?
**A.** The AC50 was 2.79 µM (active).

**Q.** For `O=C(C1=C[C@@H](c2ccc(Br)cc2)C[C@@H](OCc2ccc(CO)cc2)O1)N1CCN(Cc2ccc3c(c2)OCO3)CC1`, which CC50 [1] is on record?
**A.** The CC50 was > 40 µM (active).

**Q.** Which IC50 (H9c2) does the source give for `COc1ccc(-c2cc(=O)oc3cc(OC(=O)C4CCCCC4)ccc23)cc1` here?
**A.** Its IC50 is 22 µM (active).

**Q.** What does the source list for `Cc1ccc(N/C=C/C(=O)c2sc(-c3ccccc3)nc2C)cc1`?
**A.** EC50 [4]: > 300 µM (not active); EC50 [5]: 46.4 µM (inconclusive)

**Q.** What does the source list for `CCOc1ccc2c(c1)/C(=C(\C(Cl)=C(Cl)Cl)[N+](=O)[O-])N2`?
**A.** EC50 [4]: 40.3 µM (active); EC50 [5]: 68 µM (active)

**Q.** With `Cn1nnnc1Sc1ncnc2scc(-c3ccccc3)c12` as the compound, how does the CC50 [1] read?
**A.** Its CC50 is 30 µM (active).
